Source: ChEMBL document CHEMBL1932991, “Novel ATP competitive MK2 inhibitors with potent biochemical and cell-based activity throughout the series” (Bioorg Med Chem Lett, 2012)

Legend:
[1] = molecular target: T1, MAP kinase-activated protein kinase 2 (Homo sapiens, UniProt P49137); experiment: Inhibition of MK2 using Fluo-betaA-11A NeoMPS as substrate pre-incubated for 30 mins before substrate addition measured after 2 hrs by IMAP assay
[2] = test system: THP-1; experiment: Inhibition of LPS-induced TNFalpha production in human THP1 cells pre-incubated for 30 mins prior to LPS-induction measured after 4 hrs by ELISA; type: functional, cell-based
[3] = molecular target: T1, MAP kinase-activated protein kinase 2; experiment: Inhibition of MK2-mediated HSP27 phosphorylation in LPS-stimulated human THP1 cells pre-incubated for 60 mins prior to LPS-induction measured after 60 mins by multi-spot assay; type: cell-based, THP-1
[4] = test system: PBMC; experiment: Inhibition of LPS-induced TNFalpha production in human PBMC pre-incubated for 30 mins prior to LPS-induction measured after 4 hrs by ELISA; type: functional, cell-based
[5] = Dissociation constant, pKa of the compound at pH 7.4; type: physicochemical
[6] = Plasma protein binding in human; type: ADME, cell-free; conditions: read-out: PPB (converted)
[7] = Permeability of the compound by PAMPA; type: ADME; conditions: for Papp: read-out: permeability

T1 sequence (P49137 whole entry): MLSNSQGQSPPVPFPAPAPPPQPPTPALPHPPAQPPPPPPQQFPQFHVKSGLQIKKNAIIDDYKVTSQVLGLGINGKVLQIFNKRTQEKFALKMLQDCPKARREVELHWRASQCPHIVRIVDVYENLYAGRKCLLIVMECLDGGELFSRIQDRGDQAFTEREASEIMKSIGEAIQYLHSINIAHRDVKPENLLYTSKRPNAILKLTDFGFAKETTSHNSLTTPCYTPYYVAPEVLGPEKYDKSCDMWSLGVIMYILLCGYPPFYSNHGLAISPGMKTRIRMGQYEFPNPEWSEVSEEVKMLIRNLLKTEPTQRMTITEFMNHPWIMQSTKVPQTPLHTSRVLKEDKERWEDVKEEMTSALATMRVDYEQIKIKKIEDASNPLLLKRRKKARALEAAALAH

| Structure (SMILES) | EC50 [1] | EC50 ([2]; Homo sapiens, THP-1) | EC50 [3] | EC50 ([4]; Homo sapiens, PBMC) | pKa [5] | fraction unbound [6] | Papp [7] | EC50 ([4]; pbmc) | EC50 ([2]; thp-1) | permeability [7] |
| --- | --- | --- | --- | --- | --- | --- | --- | --- | --- | --- |
| Cc1ccc(C(=O)Nc2nccc(-c3cc4c([nH]3)C3(CCNCC3)CNC4=O)n2)cc1C | 3.1 nM | 3400 nM | – | – | – | – | – | – | – | – |
| Cc1ccc(C(=O)Nc2cc(-c3cc4c([nH]3)C3(CCNCC3)CNC4=O)ccn2)cc1C | 1 nM | 230 nM | 350 nM | 890 nM | – | – | – | – | – | – |
| O=C(Nc1nccc(-c2cc3c([nH]2)C2(CCNCC2)CNC3=O)n1)c1ccc2ccccc2c1 | 5.1 nM | 3400 nM | – | – | – | – | – | – | – | – |
| O=C(Nc1cc(-c2cc3c([nH]2)C2(CCNCC2)CNC3=O)ccn1)c1ccc2ccccc2c1 | 0.72 nM | 320 nM | 280 nM | 230 nM | 9.2 | 0.003 | – | – | – | – |
| O=C1NCC2(CCNCC2)c2[nH]c(-c3ccnc(NC(=O)c4cccc5ccccc45)n3)cc21 | 14 nM | > 10000 nM | – | – | – | – | – | – | – | – |
| O=C1NCC2(CCNCC2)c2[nH]c(-c3ccnc(NC(=O)c4cccc5ccccc45)c3)cc21 | 0.96 nM | 490 nM | 520 nM | 650 nM | – | – | – | – | – | – |
| O=C(Nc1nccc(-c2cc3c([nH]2)C2(CCNCC2)CNC3=O)n1)c1ccc(F)cc1 | 15 nM | 7900 nM | – | – | – | – | – | – | – | – |
| O=C(Nc1cc(-c2cc3c([nH]2)C2(CCNCC2)CNC3=O)ccn1)c1ccc(F)cc1 | 1.6 nM | 1300 nM | 3700 nM | 1400 nM | – | – | – | – | – | – |
| Cc1ccc(C(=O)Nc2cc(-c3cc4c([nH]3)C3(CCN(C)CC3)CNC4=O)ccn2)cc1C | 2.3 nM | 720 nM | 920 nM | – | – | – | – | – | – | – |
| CN1CCC2(CC1)CNC(=O)c1cc(-c3ccnc(NC(=O)c4ccc5ccccc5c4)c3)[nH]c12 | 2.6 nM | 1100 nM | 730 nM | 70 nM | 8.3 | 0.005 | – | – | – | – |
| O=C(Nc1cc(-c2cc3c([nH]2)C2(CCNCC2)CNC3=O)ccn1)c1cccc(F)c1 | 1.1 nM | 780 nM | 680 nM | 150 nM | – | – | 0.6 ×10⁻⁶ cm/s | – | – | – |
| CN1CCC2(CC1)CNC(=O)c1cc(-c3ccnc(NC(=O)c4cccc(F)c4)c3)[nH]c12 | 2.5 nM | 540 nM | 640 nM | 30 nM | – | – | – | – | – | – |
| O=C(Nc1cc(-c2cc3c([nH]2)C2(CCNCC2)CNC3=O)ccn1)c1cccc(OC(F)(F)F)c1 | 1.5 nM | 80 nM | 130 nM | 160 nM | 9.1 | 0.042 | – | – | – | – |
| CN1CCC2(CC1)CNC(=O)c1cc(-c3ccnc(NC(=O)c4cccc(OC(F)(F)F)c4)c3)[nH]c12 | 2.7 nM | 1000 nM | 830 nM | 50 nM | 8.4 | 0.027 | – | – | – | – |
| O=C(Nc1cc(-c2cc3c([nH]2)C2(CCNCC2)CNC3=O)ccn1)c1ccc(C(F)(F)F)cc1 | 1.6 nM | 660 nM | 1300 nM | 1600 nM | – | – | – | – | – | – |
| O=C(Nc1cc(-c2cc3c([nH]2)C2(CCNCC2)CNC3=O)ccn1)c1ccccn1 | 1.4 nM | 720 nM | 550 nM | 260 nM | – | – | – | – | – | – |
| O=C(Nc1cc(-c2cc3c([nH]2)C2(CCNCC2)CNC3=O)ccn1)c1ccncc1 | 2.6 nM | > 10000 nM | > 10000 nM | 2600 nM | – | – | – | – | – | – |
| Cc1ccc(C(=O)Nc2cc(-c3cc4c([nH]3)C3(CCCNC3)CNC4=O)ccn2)cc1C (racemic) | 8.1 nM | – | 690 nM | – | – | – | – | 40 nM | 460 nM | – |
| O=C(Nc1cc(-c2cc3c([nH]2)C2(CCCNC2)CNC3=O)ccn1)c1ccc2ccccc2c1 (racemic) | 7.6 nM | – | 1100 nM | – | – | – | – | 70 nM | 780 nM | – |
| O=C1NCC2(CCCNC2)c2[nH]c(-c3ccnc(NC(=O)c4cccc5ccccc45)c3)cc21 (racemic) | 5.1 nM | 220 nM | 1100 nM | 390 nM | – | – | 0.1 ×10⁻⁶ cm/s | – | – | – |

| Structure (SMILES) | EC50 [1] | EC50 ([2]; Homo sapiens, THP-1) | EC50 [3] | EC50 ([4]; Homo sapiens, PBMC) | pKa [5] | fraction unbound [6] | Papp [7] | EC50 ([4]; pbmc) | EC50 ([2]; thp-1) | permeability [7] |
| --- | --- | --- | --- | --- | --- | --- | --- | --- | --- | --- |
| O=C(Nc1cc(-c2cc3c([nH]2)C2(CCCNC2)CNC3=O)ccn1)c1ccc(F)cc1 (racemic) | 8.9 nM | – | 870 nM | – | – | – | – | – | 320 nM | 0.5 ×10⁻⁶ cm/s |
| O=C(Nc1cc(-c2cc3c([nH]2)C2(CCCNC2)CNC3=O)ccn1)c1cccc(F)c1 (racemic) | 6.2 nM | 560 nM | – | 30 nM | – | – | 1.9 ×10⁻⁶ cm/s | – | – | – |
| O=C(Nc1cc(-c2cc3c([nH]2)C2(CCCNC2)CNC3=O)ccn1)c1cccc(OC(F)(F)F)c1 (racemic) | 11 nM | 620 nM | 610 nM | 200 nM | 8.2 | 0.013 | – | – | – | – |
| O=C(Nc1cc(-c2cc3c([nH]2)C2(CCCNC2)CNC3=O)ccn1)c1ccc(C(F)(F)F)cc1 (racemic) | 9.1 nM | 1300 nM | 1200 nM | 480 nM | – | – | – | – | – | – |
| O=C(Nc1cc(-c2cc3c([nH]2)C2(CCCNC2)CNC3=O)ccn1)c1ccccn1 (racemic) | 4.2 nM | 480 nM | 660 nM | 130 nM | – | – | 0.2 ×10⁻⁶ cm/s | – | – | – |
| O=C(Nc1cc(-c2cc3c([nH]2)C2(CCCNC2)CNC3=O)ccn1)c1cc(F)cc(F)c1 (racemic) | 2.5 nM | 1100 nM | 590 nM | 140 nM | – | – | 6.3 ×10⁻⁶ cm/s | – | – | – |
| O=C(Nc1cc(-c2cc3c([nH]2)C2(CCCNC2)CNC3=O)ccn1)c1cccc(C(F)(F)F)c1 (racemic) | 3.3 nM | 850 nM | 590 nM | 140 nM | – | – | – | – | – | – |
| Cc1ccc(C(=O)Nc2cc(-c3cc4c([nH]3)C3(CCNC3)CNC4=O)ccn2)cc1C (racemic) | 0.71 nM | 340 nM | 240 nM | 150 nM | – | – | 0.2 ×10⁻⁶ cm/s | – | – | – |
| O=C(Nc1cc(-c2cc3c([nH]2)C2(CCNC2)CNC3=O)ccn1)c1ccc2ccccc2c1 (racemic) | 0.62 nM | 1700 nM | 390 nM | – | 8.5 | 0.002 | – | – | – | – |
| O=C(Nc1cc(-c2cc3c([nH]2)C2(CCNC2)CNC3=O)ccn1)c1ccc(F)cc1 (racemic) | 1.3 nM | 1100 nM | 840 nM | 200 nM | – | – | – | – | – | – |
| O=C(Nc1cc(-c2cc3c([nH]2)C2(CCNC2)CNC3=O)ccn1)c1cccc(F)c1 (racemic) | 1.9 nM | 1100 nM | 480 nM | 170 nM | – | – | 0.6 ×10⁻⁶ cm/s | – | – | – |
| O=C(Nc1cc(-c2cc3c([nH]2)C2(CCNC2)CNC3=O)ccn1)c1cccc(OC(F)(F)F)c1 (racemic) | 1.6 nM | 690 nM | 400 nM | 650 nM | 8.4 | 0.017 | – | – | – | – |
| O=C(Nc1cc(-c2cc3c([nH]2)C2(CCNC2)CNC3=O)ccn1)c1ccccn1 (racemic) | 4.1 nM | 3900 nM | 660 nM | – | – | – | – | – | – | – |
| O=C(Nc1cc(-c2cc3c([nH]2)C2(CCCNC2)CNC3=O)ccn1)c1ccc2ccccc2c1 (single isomer, unassigned) | 129 nM | – | – | – | 8.2 | 0.004 | – | – | – | – |
| O=C(Nc1cc(-c2cc3c([nH]2)C2(CCCNC2)CNC3=O)ccn1)c1ccc(F)cc1 (single isomer, unassigned; isomer 2) | 31 nM | – | 7400 nM | – | – | – | – | 1600 nM | > 10000 nM | – |
| O=C(Nc1cc(-c2cc3c([nH]2)C2(CCCNC2)CNC3=O)ccn1)c1ccc2ccccc2c1 (single isomer, unassigned; stereoisomer 1) | 2.5 nM | 510 nM | 530 nM | – | – | – | – | 170 nM | – | – |
| Cc1ccc(C(=O)Nc2cc(-c3cc4c([nH]3)C3(CCCNC3)CNC4=O)ccn2)cc1C (single isomer, unassigned; stereoisomer 2) | 32 nM | – | 5300 nM | – | – | – | 1 ×10⁻⁶ cm/s | 1200 nM | 8500 nM | – |
| Cc1ccc(C(=O)Nc2cc(-c3cc4c([nH]3)C3(CCCNC3)CNC4=O)ccn2)cc1C (stereo in doubt; 3dS1) | 5.5 nM | – | – | – | – | – | – | – | 650 nM | – |
| O=C(Nc1cc(-c2cc3c([nH]2)C2(CCCNC2)CNC3=O)ccn1)c1ccc(F)cc1 (stereo in doubt; 6dS1) | 2.4 nM | – | 320 nM | – | – | – | – | 70 nM | 310 nM | 1.1 ×10⁻⁶ cm/s |
